Measurements published in US9346741B2, “Polyamine transport selective therapeutic agents with enhanced stability” (University of Central Florida Research Foundation, Inc., priority 2012, dated 2016).
Entries after “also recorded” stand apart in the source; their conditions may differ. Read-outs that look alike come from different tables or passages of the source.

Key:
MALME-3M cells = test: Cytotoxicity IC50 determination (MTS) in MALME-3M cells; type: cell-based, human
Method: Armed with this insight, compounds 5a-8b were evaluated in the MALME-3M (melanoma) cell line and its non-cancerous counterpart MALME-3 obtained originally from the same patient. These matched cell lines provided a method to assess PTS selectivity for the cancer line (MALME-3M) over the non-cancerous cell line (MALME-3). […]
(§1) CHO and CHO-MG cells were grown in RPMI 1640 medium supplemented with 10% fetal calf serum and 1% penicillin/streptomycin. Note: the media must contain L-proline (2 μg/mL) for proper growth of the CHO-MG cells. MALME-3M cells were grown in RPMI 1640 medium supplemented with 10% FBS and 1% penicillin/streptomycin. All cells were grown at 37° C. under a humidified 5% CO2 atmosphere Aminoguanidine (1 mM) was added to the growth medium to prevent oxidation of the drugs by the enzyme (bovine serum amine oxidase) present in calf serum. Cells in early to mid-log phase were used.
(§2) Cell growth was assayed in sterile 96-well microtiter plates (Costar 3599, Corning, N.Y., USA). CHO and CHO-MG* cells were plated at 10,000 cells/mL. MALME-3M and MALME-3 cells were plated at 5,000 cells/mL. Drug solutions (10 μL per well) of appropriate concentration were added after an overnight incubation for each CHO cell line (90 μL). 48 h MALME-3M experiments were conducted using 10% Nu-Serum IV, and 96 h MALME-3M and MALME-3 experiments were conducted using 10% FBS. After exposure to the drug for 48 h (CHO, CHO-MG*, and MALME-3M) or 96 h (MALME-3M and MALME-3), cell growth was determined by measuring formazan
(§3) formation from 3-(4,5-dimethylthiazol-2-yl)-5-(3-carboxymethoxyphenyl)-2-(4-sulphenyl)-2H-tetrazolium) inner salt (MTS) using a SynergyMx Biotek microplate reader for absorbance ([…]) measurements.^24

MALME-3 cells = test: Cytotoxicity IC50 determination (MTS) in MALME-3 cells; type: cell-based, human; conditions: for IC50: 96 h at 37° C., 1 mM AG, 10% FBS
Method: Armed with this insight, compounds 5a-8b were evaluated in the MALME-3M (melanoma) cell line and its non-cancerous counterpart MALME-3 obtained originally from the same patient. These matched cell lines provided a method to assess PTS selectivity for the cancer line (MALME-3M) over the non-cancerous cell line (MALME-3).
as §1, §2, §3

CHO cells = test: in vitro; type: cell-based; conditions: for IC50: 48 h at 37° C.
Description: (§4) CHO cells were chosen along with a mutant cell line (CHO-MG*) to comment on how the synthetic conjugates gain access to the cells.^2c-e, 6 As discussed earlier, the CHO-MG cell line is polyamine-transport deficient and represents a model for alternative modes of entry (other than PTS) including passive diffusion or use of another transporter. The CHO cell line on the other hand, represents cells with high polyamine transport activity.^7, 10c A comparison of toxicity in these two CHO cell lines allowed for a screen that would detect selective use of the polyamine transporter. This is seen where high utilization of the PTS would be very toxic to CHO cells, however, there would not be the same level of toxicity found in CHO-MG cells.^2c-e, 6 Ultimately, a CHO-MG/CHO IC50 can be determined where a high ratio would be achieved for highly PTS selective compounds.
(§5) CHO and CHO-MG cells were grown in RPMI 1640 medium supplemented with 10% fetal calf serum and 1% penicillin/streptomycin. Note: the media must contain L-proline (2 μg/mL) for proper growth of the CHO-MG cells. MALME-3M cells were grown in RPMI 1640 medium supplemented with 10% FBS and 1% penicillin/streptomycin. […] Cells in early to mid-log phase were used.
as §2, §3

[1] = test system: MALME-3M (melanoma) vs MALME-3 (normal) cells; test: MALME-3/MALME-3M IC50 ratio, a measure of selectivity; type: cell-based, human; conditions: 96 h; 1 mM AG
Description: These matched cell lines provided a method to assess PTS selectivity for the cancer line (MALME-3M) over the non-cancerous cell line (MALME-3).

[2] = test system: polyamine transport system (PTS), CHO-MG* vs CHO cells; test: CHO-MG*/CHO IC50 ratio, a measure of PTS selectivity; type: cell-based, Chinese hamster; conditions: 48 h; for IC50 ratio w/AG (CHO-MG*/CHO): with 1 mM AG; for IC50 ratio w/o AG (CHO-MG*/CHO): without AG
Description: Compounds with high CHO-MG/CHO IC50 ratios are considered PTS selective.
as §4

CHO-MG* cells = test: Cytotoxicity IC50 determination (MTS) in polyamine-transport-deficient CHO-MG* cells; type: cell-based, Chinese hamster; conditions: 48 h at 37° C.
Description: as §4, §5, §2, §3

[3] = test system: polyamine transport system (PTS) in L1210 cells; conditions: cited from earlier work
[4] = test system: 60 human cancer cell lines; test: NCI 60 cell-line screen; type: cell-based; conditions: 48 h; for effect on breast cancer cell lines in the NCI 60 cell-line screen / effect on melanoma cell lines in the NCI 60 cell-line screen: 10 μM
Method: Once compounds 6a-b, 7a-b, and 8a-8b were evaluated in CHO and CHO-MG*, these compounds were sent to the National Cancer institute (NCI) to conduct its 60 cell-line screen to determine if these compounds could also be potent anti-cancer agents for human cancer cell lines. […] As shown in FIGS. 2A-2C, dose response curves were generated based upon the 60 cell-line screen at different molar concentrations of each PTS targeting agent 6b, 7b, and 8b.
To generate FIGS. 2A-2C, the respective drug was dosed at 10 μM into each human cancer cell line and cell viability was assessed after a 48 h incubation at 37° C. in an environment of 5% CO2, 95% air and 100% relative humidity. A more descriptive methodology can be found at the NCI website: http://dtp.nci.nih.gov/branches/btb/ivclsp.html. Cell lines which gave bar graphs which extend to the right of the central line were more sensitive to the drug than cell lines which extended to the left of the center line.

[5] = test system: 60 human cancer cell lines; test: NCI 60 cell-line screen; type: cell-based; conditions: 5-dose assay
[6] = 1 mM AG 24 h prior to drug addition, read-out: CHO IC50 (μM) w/AG
[7] = without AG, read-out: CHO IC50 (μM) w/o AG
[8] = 48 h at 37° C., 1 mM AG, 10% Nu-Serum IV, read-out: MALME-3M IC50 (μM) w/ AG
[9] = 48 h at 37° C., without AG, 10% Nu-Serum IV, read-out: MALME-3M IC50 (μM) w/o AG
[10] = 96 h at 37° C., 1 mM AG, 10% FBS, read-out: MALME-3M IC50
[11] = 1 mM AG 24 h prior to drug addition, read-out: CHO-MG* IC50 (μM) w/AG
[12] = without AG, read-out: CHO-MG* IC50 (μM) w/o AG
[13] = Cricetulus griseus, CHO, 1 mM AG 24 h prior to drug addition, read-out: CHO IC50 (μM) w/AG
[14] = Cricetulus griseus, CHO, without AG, read-out: CHO IC50 (μM) w/o AG
[15] = Homo sapiens, Malme-3M, 48 h at 37° C., 1 mM AG, 10% Nu-Serum IV, read-out: MALME-3M IC50 (μM) w/ AG
[16] = Homo sapiens, Malme-3M, 48 h at 37° C., without AG, 10% Nu-Serum IV, read-out: MALME-3M IC50 (μM) w/o AG
[17] = Homo sapiens, Malme-3M, 96 h at 37° C., 1 mM AG, 10% FBS, read-out: MALME-3M IC50
[18] = Cricetulus griseus, CHO-MG, 1 mM AG 24 h prior to drug addition, read-out: CHO-MG* IC50 (μM) w/AG
[19] = Cricetulus griseus, CHO-MG, without AG, read-out: CHO-MG* IC50 (μM) w/o AG

Row | SMILES | IC50 (CHO cells; [6]) [µM] | IC50 (CHO cells; [7]) [µM] | IC50 (MALME-3M cells; [8]) [µM] | IC50 (MALME-3M cells; [9]) [µM] | IC50 (MALME-3M cells; [10]) [µM] | MALME-3/MALME-3M IC50 ratio [1] | IC50 (MALME-3 cells) [nM] | IC50 ratio w/AG (CHO-MG*/CHO) [2] | IC50 ratio w/o AG (CHO-MG*/CHO) [2] | IC50 (CHO-MG* cells; [11]) [µM] | IC50 (CHO-MG* cells; [12]) [µM] | Ki ([3]; read-out: Ki in L1210 cells) [nM] | further results
1 | N=C(N)NN [AG, aminoguanidine, reference compound] |  |  |  |  |  |  |  |  |  |  |  |  | toxicity of 1 mM AG in MALME-3M cells (MALME-3M cells; 1 mM): ^b1 mM AG was determined to be non-toxic and incubated with MALME-3M and MALME-3 cells for 24 h prior to drug addition; also recorded: ^b1 mM AG was determined to be non-toxic and incubated with MALME-3M cells for 24 h prior to drug addition; toxicity of 1 mM AG in MALME-3 cells (MALME-3 cells; 1 mM): ^b1 mM AG was determined to be non-toxic and incubated with MALME-3M and MALME-3 cells for 24 h prior to drug addition.
2 | CNCCCCNCCCCNCc1c2ccccc2cc2ccccc12 [Compound 5b] | 2.8 | 2.1 | 0.6 | 0.62 | 0.45 | 1.4 | 620 | 3.8 | 5.4 | 10.7 | 11.3 |  | 
3 | NCCCCNCCCCNCc1c2ccccc2c(CNCCCCNCCCCN)c2ccccc12 [Compound 6a] | 0.028 | 4 | 0.088 | 0.29 | 0.017 | 41 | 690 | >3571 | 2.1 | > 100 | 8.4 | 390 | 
4 | CNCCCCNCCCCNCc1c2ccccc2c(CNCCCCNCCCCNC)c2ccccc12 [Compound 6b, N1,N1′-(Anthracene-9,10-diylbis(methylene))bis(N4-(4-(methylamino)butyl)butane-1,4-diamine)] |  |  |  |  |  | 16 |  | >1204 | >1190 |  |  |  | IC50 (CHO cells; [13]): 0.083 µM; IC50 (CHO cells; [14]): 0.084 µM; effect on breast cancer cell lines in the NCI 60 cell-line screen [4]: exhibited an anti-proliferation effect in breast cancer cell lines, particularly the T-47D cell line; effect on melanoma cell lines in the NCI 60 cell-line screen [4]: inhibited the proliferation of melanoma cell lines, particularly the MALME-3M cell line; NCI 60 cell-line screen, overall result ([4]; no AG): cell-targeting specificity, especially for the MALME-3M cell line; IC50 (MALME-3M cells; [15]): 0.13 µM; IC50 (MALME-3M cells; [16]): 0.16 µM; IC50 (MALME-3M cells; [17]): 0.062 µM; IC50 (MALME-3 cells; Homo sapiens, MALME-3): 1000 nM; NCI 5-dose assay, MALME-3M cell line [5]: dose dependent response; IC50 (CHO-MG* cells; [18]): > 100 µM; IC50 (CHO-MG* cells; [19]): > 100 µM
5 | NCCCCNCCCCNCc1ccc(CNCCCCNCCCCN)c2ccccc12 [Compound 7a] | 0.022 | 5.5 | 0.043 | 0.43 | 0.018 | 71 | 1270 | >4545 | 9.5 | > 100 | 52.1 | 170 | 
6 | CNCCCCNCCCCNCc1ccc(CNCCCCNCCCCNC)c2ccccc12 [Compound 7b, N1,N1′-(Naphthalene-1,4-diylbis(methylene))bis(N4-(4-(methylamino)butyl)butane-1,4-diamine)] |  |  |  |  |  | 59 |  | >2272 | >2564 |  |  |  | IC50 (CHO cells; [13]): 0.044 µM; IC50 (CHO cells; [14]): 0.039 µM; effect on breast cancer cell lines in the NCI 60 cell-line screen [4]: exhibited an anti-proliferation effect in breast cancer cell lines, particularly the T-47D cell line; effect on melanoma cell lines in the NCI 60 cell-line screen [4]: inhibited the proliferation of melanoma cell lines, particularly the MALME-3M cell line; IC50 (MALME-3M cells; [15]): 0.1 µM; IC50 (MALME-3M cells; [16]): 0.17 µM; IC50 (MALME-3M cells; [17]): 0.014 µM; IC50 (MALME-3 cells; Homo sapiens, MALME-3): 820 nM; NCI 5-dose assay, MALME-3M cell line [5]: dose dependent response; IC50 (CHO-MG* cells; [18]): > 100 µM; IC50 (CHO-MG* cells; [19]): > 100 µM
7 | NCCCCNCCCCNCc1cc(CNCCCCNCCCCN)cc(CNCCCCNCCCCN)c1 [Compound 32, reference compound] |  |  |  |  |  |  |  | 1 |  |  |  |  | fold less toxic than 34a in the CHO cell line (CHO cells; CHO, versus 34a): > 3500 fold; IC50 (CHO cells; Cricetulus griseus, CHO, Table 4, 1 mM AG 24 h prior to drug addition, read-out: CHO IC50): > 100 µM; MTD (μM) in CHO (maximum tolerated dose) (CHO cells; hamster): 80 µM; Ki ([3]; unit inferred, read-out: Ki values in L1210 cells): 520 ± 110 nM; IC50 (CHO-MG* cells; Cricetulus griseus, CHO-MG, Table 4, 1 mM AG 24 h prior to drug addition, read-out: CHO-MG* IC50): > 100 µM
8 | NCCCCNCCCN [Spermidine, spermidine, reference compound] |  |  |  |  |  |  |  |  |  |  |  | 2460 | non-toxic concentration in MALME-3M (MALME-3M cells; spermidine alone): up to 100 μM; non-toxic concentration in MALME-3 (MALME-3 cells; spermidine alone): up to 100 μM
